Among the data in ChEMBL document CHEMBL1687791, “Identification and characterization of four azole-resistant erg3 mutants of Candida albicans” (2010) are Activity and MIC values, retold here.

Format in all cases: functional
Experiment [1] concerns Candida albicans. Put plainly: Antifungal activity against Candida albicans isolate 12 harboring ERG3 W332R mutant gene assessed as lanosterol/obtusifoliol content in total sterol composition at 0.5 times MIC by GC-MS analysis.
Experiment [2] concerns Candida albicans. Put plainly: Antifungal activity against Candida albicans isolate 177 by broth dilution method.
In experiment [3] the test system is Candida albicans. Nature of the experiment: Antifungal activity against Candida albicans isolate 14 assessed as lanosterol/obtusifoliol content in total sterol composition at 0.5 times MIC by GC-MS analysis.
Experiment [4] deals with Candida albicans. Put plainly: Antifungal activity against Candida albicans isolate 488 harboring ERG3 H243N, T330A, A351V and ERG11 D225G, E266D, E391G, V488I mutant genes assessed as 14alpha-methylergosta-8,24(28)-dien-3beta,6alpha-diol content in total sterol composition at 0.5 times MIC by GC-MS analysis.
For experiment [5], the system named is Candida albicans. Nature of the experiment: Antifungal activity against Candida albicans isolate 490 harboring ERG3 D147G, T330A, A351V and ERG11 F72S, T229A, E266D, N440S, V488I, R523G mutant genes assessed as ergosterol content in total sterol composition at 0.5 times MIC by GC-MS analysis.
The subject of experiment [6] is Candida albicans. Nature of the experiment: Antifungal activity against Candida albicans isolate 488 harboring ERG3 H243N, T330A, A351V and ERG11 D225G, E266D, E391G, V488I mutant genes assessed as lanosterol/obtusifoliol content in total sterol composition at 0.5 times MIC by GC-MS analysis.
Experiment [7] has as its system Candida albicans. Put plainly: Antifungal activity against Candida albicans isolate 6 by broth microdilution method in presence of 10 uM drug efflux inhibitor FK506.
Experiment [8] concerns Candida albicans. Nature of the experiment: Antifungal activity against Candida albicans isolate 14 by broth microdilution method.
Experiment [9] has as its system Candida albicans. Nature of the experiment: Antifungal activity against Candida albicans isolate 490 harboring ERG3 D147G, T330A, A351V and ERG11 F72S, T229A, E266D, N440S, V488I, R523G mutant genes assessed as 14alpha-methyl fecosterol content in total sterol composition at 0.5 times MIC by GC-MS analysis.
The test system of experiment [10] is Candida albicans. Put plainly: Antifungal activity against Candida albicans isolate 490 harboring ERG3 D147G, T330A, A351V and ERG11 F72S, T229A, E266D, N440S, V488I, R523G mutant genes by broth microdilution method. Background: In broth dilution the organism is exposed to a series of concentrations in liquid medium.

Values after ≈ are worked out from the molar mass of the structure shown. A value given as a limit tells only on which side of the number the result lay.

One may read the MIC as the least concentration at which growth counts as inhibited. Turning to `OC(Cn1cncn1)(Cn1cncn1)c1ccc(F)cc1F` [FLUCONAZOLE], the Activity in the experiment with Candida albicans [1] is 18.3%; in the experiment on Candida albicans [3], 10.6%; in the experiment with Candida albicans [4], 14.3%; in the experiment on Candida albicans [5] it was 3.5%; in the experiment on Candida albicans [6], 15.2%; in the experiment with Candida albicans [9], 69.2%. In addition, the MIC is 256 µg/mL (≈ 836 µM) with Candida albicans [2], 1 µg/mL in the experiment with Candida albicans [7], 1 µg/mL (≈ 3.27 µM) against Candida albicans [8] and over 256 µg/mL in the experiment with Candida albicans [10].
